# Assay results: ChEMBL document CHEMBL1201862, “PubChem BioAssay data set” (2004)
# Calls of active or inactive are those of the source.
# Assays:
# [1] = target: T1, Fructose-bisphosphate aldolase (Mycobacterium tuberculosis, UniProt P9WQA3); assay: Fluorescence-based biochemical high throughput dose response assay for inhibitors of the fructose-bisphosphate aldolase (FBA) of M. tuberculosis.; type: functional
# T1 sequence (P9WQA3 whole entry): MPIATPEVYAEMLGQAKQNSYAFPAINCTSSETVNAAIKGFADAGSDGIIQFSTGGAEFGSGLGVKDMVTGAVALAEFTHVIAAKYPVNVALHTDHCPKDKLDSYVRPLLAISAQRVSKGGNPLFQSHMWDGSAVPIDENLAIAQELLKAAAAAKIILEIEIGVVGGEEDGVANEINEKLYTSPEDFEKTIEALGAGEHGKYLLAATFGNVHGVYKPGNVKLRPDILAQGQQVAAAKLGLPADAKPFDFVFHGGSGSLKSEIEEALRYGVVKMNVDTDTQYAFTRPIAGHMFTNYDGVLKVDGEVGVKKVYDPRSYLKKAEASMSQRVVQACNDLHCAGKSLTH
# Galanin receptor type 3 = target: T2, Galanin receptor type 3 (Homo sapiens, UniProt O60755); assay: Fluorescence-based cell-based primary high throughput dose response assay to identify antagonists of the Galanin Receptor 3 (GalR3).; type: functional
# T2 sequence (O60755 whole entry): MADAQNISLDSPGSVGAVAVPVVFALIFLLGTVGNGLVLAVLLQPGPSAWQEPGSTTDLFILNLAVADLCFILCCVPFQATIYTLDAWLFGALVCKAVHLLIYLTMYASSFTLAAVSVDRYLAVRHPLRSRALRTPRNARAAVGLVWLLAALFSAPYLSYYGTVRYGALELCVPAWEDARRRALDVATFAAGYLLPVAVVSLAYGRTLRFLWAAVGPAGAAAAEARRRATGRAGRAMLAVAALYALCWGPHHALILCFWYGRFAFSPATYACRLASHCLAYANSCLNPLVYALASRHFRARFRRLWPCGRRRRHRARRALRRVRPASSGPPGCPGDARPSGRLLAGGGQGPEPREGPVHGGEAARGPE
# cells = type: functional, cell-based; conditions: HEK-CNG
# [2] = NIH-3T3 fibroblast cytotoxicity, dose response, cytotoxicity control, cell-based, fluorescence, Alamar Blue, secondary assay (AID 2327); type: functional;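 also: NIH-3T3 mouse fibroblasts cultured with fluconazole at 8 µg/mL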
# [3] = C. albicans growth with fluconazole, confirmation, fluorescence, retest (AID 2467); type: functional, cell-based
# [4] = target: Induced myeloid leukemia cell differentiation protein Mcl-1 (Homo sapiens, UniProt Q07820); type: functional
# [5] = target: T3, Mannose-6-phosphate isomerase (Homo sapiens, UniProt P34949); assay: human PMI inhibitors, high substrate, primary screen, biochemical, fluorescence intensity, high mannose 6-phosphate (AID 1220)
# T3 sequence (P34949 whole entry): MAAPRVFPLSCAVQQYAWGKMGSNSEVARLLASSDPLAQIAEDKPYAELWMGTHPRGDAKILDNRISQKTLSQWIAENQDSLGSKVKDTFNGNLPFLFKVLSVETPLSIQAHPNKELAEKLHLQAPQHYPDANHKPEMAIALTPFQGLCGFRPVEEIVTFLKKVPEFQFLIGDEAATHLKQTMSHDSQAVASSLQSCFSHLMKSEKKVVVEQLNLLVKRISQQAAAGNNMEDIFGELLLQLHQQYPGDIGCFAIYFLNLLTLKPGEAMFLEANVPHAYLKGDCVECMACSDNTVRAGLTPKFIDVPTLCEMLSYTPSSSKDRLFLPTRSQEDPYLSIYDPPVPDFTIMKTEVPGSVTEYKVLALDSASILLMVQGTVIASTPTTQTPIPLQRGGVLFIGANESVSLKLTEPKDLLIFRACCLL
# Genome polyprotein = Genome polyprotein (dengue virus type 2, UniProt P29990); assay: Dengue-2 NS5 methyltransferase inhibitors, primary screen, biochemical, confirmation dose response (AID 588689); type: functional
# Albumin = Albumin (Bos taurus, UniProt P02769); assay: Counterscreen for inhibitors of T-cell receptor (TCR)-CD3 interaction: Fluorescence-based biochemical high throughput dose response assay to identify inhibitors of T-cell receptor (TCR)-CD3 interaction using a TAMRA-labeled BSA probe.; type: functional
# Caspase-6 = target: T4, Caspase-6 (Homo sapiens, UniProt P55212); assay: human caspase-6 inhibitors, dose response, biochemical, VEID-R110 fluorescence, cherry-pick (AID 720632)
# T4 sequence (P55212 whole entry): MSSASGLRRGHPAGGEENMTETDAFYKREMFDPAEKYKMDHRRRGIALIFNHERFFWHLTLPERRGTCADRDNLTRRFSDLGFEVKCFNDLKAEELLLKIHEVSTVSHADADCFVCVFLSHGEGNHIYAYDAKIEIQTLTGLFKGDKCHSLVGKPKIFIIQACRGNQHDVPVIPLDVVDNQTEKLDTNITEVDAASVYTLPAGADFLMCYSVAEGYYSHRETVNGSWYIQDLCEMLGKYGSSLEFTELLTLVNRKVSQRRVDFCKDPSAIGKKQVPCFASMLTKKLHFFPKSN
# [6] = A cytotoxicity screen of small molecule inhibitors of the PhoP region in Salmonella typhi identified in the primary screen. [Related pubchem assays: 1850, 1864, 1985 ]; type: functional
# [7] = target: T5, Methionyl-tRNA synthetase, putative (Trypanosoma brucei brucei, UniProt Q38C91); type: functional, Trypanosoma brucei brucei strain 927/4 GUTat10.1
# T5 sequence (Q38C91 whole entry): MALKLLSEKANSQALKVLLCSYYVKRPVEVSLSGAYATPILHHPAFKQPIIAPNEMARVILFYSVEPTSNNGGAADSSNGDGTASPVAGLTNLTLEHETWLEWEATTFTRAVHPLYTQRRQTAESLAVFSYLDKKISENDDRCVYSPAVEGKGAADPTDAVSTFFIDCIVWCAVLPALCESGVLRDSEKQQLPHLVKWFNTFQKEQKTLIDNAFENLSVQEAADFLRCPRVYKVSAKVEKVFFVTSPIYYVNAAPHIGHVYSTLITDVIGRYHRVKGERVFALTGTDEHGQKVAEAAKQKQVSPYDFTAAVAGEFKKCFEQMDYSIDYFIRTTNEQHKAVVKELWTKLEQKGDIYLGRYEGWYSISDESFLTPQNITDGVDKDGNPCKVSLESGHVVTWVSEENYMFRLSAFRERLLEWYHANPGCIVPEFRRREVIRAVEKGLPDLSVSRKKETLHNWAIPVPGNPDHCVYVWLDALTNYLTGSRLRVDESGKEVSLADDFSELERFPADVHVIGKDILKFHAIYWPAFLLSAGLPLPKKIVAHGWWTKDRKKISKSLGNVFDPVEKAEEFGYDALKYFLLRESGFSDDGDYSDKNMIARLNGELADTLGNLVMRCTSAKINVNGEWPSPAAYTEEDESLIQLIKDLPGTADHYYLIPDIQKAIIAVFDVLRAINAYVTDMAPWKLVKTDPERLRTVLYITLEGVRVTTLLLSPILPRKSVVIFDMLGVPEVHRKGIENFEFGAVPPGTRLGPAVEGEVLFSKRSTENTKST
# [8] = Counterscreen for inhibitors of Trypanosoma brucei methionyl tRNA synthetase (MetRS): Luminescence-based cell-based high throughput dose response assay to identify compounds that are cytotoxic to Jurkat human T lymphocyte cells.; type: functional
# [9] = target: T5, Methionyl-tRNA synthetase, putative; type: functional, Trypanosoma brucei brucei strain 927/4 GUTat10.1; remark: listed apart in the source
# Large T antigen = Large T antigen (Simian virus 40, UniProt P03070); type: functional, Betapolyomavirus macacae;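 also: Confirmatory-stage PubChem screen for compounds that inhibit SV40 T antigen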
# [10] = target: T6, Sentrin-specific protease 8 (Homo sapiens, UniProt Q96LD8); type: functional
# T6 sequence (Q96LD8 whole entry): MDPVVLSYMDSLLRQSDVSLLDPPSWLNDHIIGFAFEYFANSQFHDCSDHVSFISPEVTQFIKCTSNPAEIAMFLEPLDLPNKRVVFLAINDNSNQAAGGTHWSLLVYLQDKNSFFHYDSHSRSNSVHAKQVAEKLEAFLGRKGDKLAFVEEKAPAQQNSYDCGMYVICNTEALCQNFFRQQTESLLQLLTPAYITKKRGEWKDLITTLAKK
# [11] = target: T6, Sentrin-specific protease 8; type: functional; remark: listed apart in the source
# [12] = target: Eukaryotic translation initiation factor 4E (Mus musculus, UniProt P63073); assay: eIF4E–eIF4G protein interaction inhibitors, dose response, biochemical, TR-FRET (AID 855); type: functional;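 also: potency for disrupting eIF4E binding to eIF4GI seen as loss of FRET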
# [13] = target: T7, Long-chain-fatty-acid--AMP ligase FadD28 (Mycobacterium tuberculosis, UniProt P9WQ59); assay: Fluorescence polarization aasay to screen for inhibitors that compete for the binding of FadD28 to a bisubstrate Measured in Biochemical System Using Plate Reader - 2147-01_Inhibitor_Dose_CherryPick_Activity.; type: functional, Mycobacterium tuberculosis H37Rv
# T7 sequence (P9WQ59 whole entry): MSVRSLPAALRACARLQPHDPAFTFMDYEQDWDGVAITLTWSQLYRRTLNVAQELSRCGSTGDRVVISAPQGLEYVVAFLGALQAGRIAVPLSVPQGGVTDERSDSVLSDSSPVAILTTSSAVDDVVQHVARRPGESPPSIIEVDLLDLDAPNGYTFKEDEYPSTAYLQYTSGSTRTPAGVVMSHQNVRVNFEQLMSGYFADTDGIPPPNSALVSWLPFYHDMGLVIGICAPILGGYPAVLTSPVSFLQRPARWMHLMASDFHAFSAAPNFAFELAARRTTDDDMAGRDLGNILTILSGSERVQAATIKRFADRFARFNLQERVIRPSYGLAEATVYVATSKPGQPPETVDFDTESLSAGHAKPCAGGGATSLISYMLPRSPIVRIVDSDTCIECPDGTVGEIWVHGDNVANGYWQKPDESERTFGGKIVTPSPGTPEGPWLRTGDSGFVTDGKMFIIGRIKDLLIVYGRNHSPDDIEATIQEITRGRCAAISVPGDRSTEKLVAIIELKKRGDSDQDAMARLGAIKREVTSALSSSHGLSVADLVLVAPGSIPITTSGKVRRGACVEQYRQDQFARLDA
# Sequence of Albumin (P02769 whole entry): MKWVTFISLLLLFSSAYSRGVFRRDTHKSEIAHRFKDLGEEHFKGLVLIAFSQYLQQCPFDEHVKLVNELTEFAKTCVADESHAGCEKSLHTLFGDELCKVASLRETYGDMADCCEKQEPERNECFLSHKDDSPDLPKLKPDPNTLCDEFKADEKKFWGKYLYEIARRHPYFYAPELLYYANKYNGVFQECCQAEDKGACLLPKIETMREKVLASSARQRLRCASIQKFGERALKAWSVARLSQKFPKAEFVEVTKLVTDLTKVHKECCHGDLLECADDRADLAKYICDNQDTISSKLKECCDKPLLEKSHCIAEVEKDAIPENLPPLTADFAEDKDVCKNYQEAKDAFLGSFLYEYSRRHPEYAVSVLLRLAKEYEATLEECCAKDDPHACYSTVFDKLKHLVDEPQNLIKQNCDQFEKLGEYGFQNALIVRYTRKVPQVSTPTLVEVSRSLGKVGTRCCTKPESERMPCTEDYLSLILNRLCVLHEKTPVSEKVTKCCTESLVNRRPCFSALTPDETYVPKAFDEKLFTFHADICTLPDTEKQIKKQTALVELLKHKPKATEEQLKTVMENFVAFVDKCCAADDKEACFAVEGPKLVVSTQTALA
# Sequence of Genome polyprotein (P29990 2492-3391 limits assumed): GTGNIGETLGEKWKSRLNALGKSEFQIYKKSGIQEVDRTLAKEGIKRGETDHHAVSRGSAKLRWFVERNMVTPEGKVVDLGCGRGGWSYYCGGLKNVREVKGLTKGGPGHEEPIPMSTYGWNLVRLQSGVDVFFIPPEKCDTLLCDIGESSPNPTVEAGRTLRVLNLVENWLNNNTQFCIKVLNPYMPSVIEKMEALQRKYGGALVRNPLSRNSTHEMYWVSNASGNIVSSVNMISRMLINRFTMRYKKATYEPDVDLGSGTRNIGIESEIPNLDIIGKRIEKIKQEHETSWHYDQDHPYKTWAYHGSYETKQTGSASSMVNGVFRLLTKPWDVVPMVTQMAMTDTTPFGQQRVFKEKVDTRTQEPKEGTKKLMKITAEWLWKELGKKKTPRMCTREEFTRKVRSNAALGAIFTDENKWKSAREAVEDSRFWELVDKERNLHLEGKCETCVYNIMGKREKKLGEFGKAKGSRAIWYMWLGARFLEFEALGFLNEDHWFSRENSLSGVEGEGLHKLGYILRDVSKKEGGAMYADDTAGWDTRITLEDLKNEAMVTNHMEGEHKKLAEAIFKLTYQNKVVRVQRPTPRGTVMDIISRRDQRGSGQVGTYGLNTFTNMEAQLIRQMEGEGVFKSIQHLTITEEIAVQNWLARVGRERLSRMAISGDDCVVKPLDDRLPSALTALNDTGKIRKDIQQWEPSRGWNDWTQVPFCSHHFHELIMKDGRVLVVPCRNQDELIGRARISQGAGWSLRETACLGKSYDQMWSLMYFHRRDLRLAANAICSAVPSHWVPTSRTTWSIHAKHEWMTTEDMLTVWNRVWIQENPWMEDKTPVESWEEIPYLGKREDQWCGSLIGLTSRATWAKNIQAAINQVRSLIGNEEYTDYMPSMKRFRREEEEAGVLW
# Sequence of Induced myeloid leukemia cell differentiation protein Mcl-1 (Q07820 whole entry): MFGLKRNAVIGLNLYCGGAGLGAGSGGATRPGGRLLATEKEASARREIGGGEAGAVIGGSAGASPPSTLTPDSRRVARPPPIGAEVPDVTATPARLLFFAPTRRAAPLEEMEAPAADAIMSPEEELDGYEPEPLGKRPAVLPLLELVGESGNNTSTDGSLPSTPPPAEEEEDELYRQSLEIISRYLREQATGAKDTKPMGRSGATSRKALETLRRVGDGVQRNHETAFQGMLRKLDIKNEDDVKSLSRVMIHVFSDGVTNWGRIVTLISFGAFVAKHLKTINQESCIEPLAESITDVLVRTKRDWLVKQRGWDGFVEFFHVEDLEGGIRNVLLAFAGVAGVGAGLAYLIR
# Sequence of Large T antigen (P03070 whole entry): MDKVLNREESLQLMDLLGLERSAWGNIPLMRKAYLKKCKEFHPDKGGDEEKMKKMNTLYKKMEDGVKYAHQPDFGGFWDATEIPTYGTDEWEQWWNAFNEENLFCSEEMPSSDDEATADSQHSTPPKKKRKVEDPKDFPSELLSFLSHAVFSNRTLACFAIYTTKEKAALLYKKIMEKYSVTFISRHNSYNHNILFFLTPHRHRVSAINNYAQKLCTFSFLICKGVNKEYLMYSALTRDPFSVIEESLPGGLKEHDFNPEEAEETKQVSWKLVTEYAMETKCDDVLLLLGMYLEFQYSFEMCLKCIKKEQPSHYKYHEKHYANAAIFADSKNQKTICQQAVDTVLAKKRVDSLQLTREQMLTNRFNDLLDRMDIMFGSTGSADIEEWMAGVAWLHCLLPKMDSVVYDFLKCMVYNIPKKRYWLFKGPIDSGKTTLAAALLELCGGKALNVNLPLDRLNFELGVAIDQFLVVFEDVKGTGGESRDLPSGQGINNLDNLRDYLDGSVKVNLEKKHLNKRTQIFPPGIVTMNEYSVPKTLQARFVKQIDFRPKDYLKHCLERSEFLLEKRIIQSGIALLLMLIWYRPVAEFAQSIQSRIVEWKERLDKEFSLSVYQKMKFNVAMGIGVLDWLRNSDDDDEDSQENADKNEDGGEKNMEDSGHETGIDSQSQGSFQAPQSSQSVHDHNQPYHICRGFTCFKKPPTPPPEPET
# Sequence of Eukaryotic translation initiation factor 4E (P63073 whole entry): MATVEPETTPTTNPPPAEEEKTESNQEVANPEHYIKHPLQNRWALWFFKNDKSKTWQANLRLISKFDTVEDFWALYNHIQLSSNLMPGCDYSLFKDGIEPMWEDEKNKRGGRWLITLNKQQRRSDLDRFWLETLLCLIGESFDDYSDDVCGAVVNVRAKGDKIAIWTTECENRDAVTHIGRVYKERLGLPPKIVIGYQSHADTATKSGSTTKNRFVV
smiles,measurement,setting,value
N#CCC(=O)N/N=C/c1ccc(N2N=C(c3ccccc3)CC2c2ccccc2)cc1 (centres undefined),IC50,[1],0.198 µM (active)
O=C(COc1ccc(C(=O)c2ccccc2)cc1)Nc1cccnc1,IC50,Galanin receptor type 3,0.399 µM (active)
same,EC50,cells,> 29.9 µM (inactive)
O=C(CCN1CCN(c2ccccc2)CC1)N/N=C/c1ccc(O)c(O)c1O,EC50,[2],> 150 µM (inactive)
same,EC50,[3],3.04 µM (active)
same,IC50,[4],6.59 µM (active)
same,IC50,[5],> 50 µM (not active)
same,IC50,Genome polyprotein,30.1 µM (active)
same,IC50,Albumin,> 94.1 µM (inactive)
same,AC50,Caspase-6,1.11 µM (active)
Cc1cc(-c2nc3ccccc3o2)c2ccccc2n1,EC50,[6],> 50 µM (active)
same,IC50,[1],2.96 µM (active)
OC(c1cc(Cl)cc(Cl)c1)c1nc(-c2ccccc2F)c[nH]1 (centres undefined),IC50,[7],9.87 µM (active)
same,IC50,[8],74.4 µM (inactive)
same,IC50,[9],6.33 µM (active)
C[C@@H]1C=C(C(=O)NCc2nc3ccccc3[nH]2)O[C@H](OCc2ccc(CO)cc2)C1,IC50,[7],2.04 µM (active)
same,IC50,[8],83.3 µM (inactive)
same,IC50,[9],1.47 µM (active)
Cc1cc(C)c2c(N)c(C(=O)NN)sc2n1,IC50,Albumin,> 94.1 µM (inactive)
CCOc1ccc(N2Nc3[nH]nc(N)c3N2)cc1,IC50,Large T antigen,18 µM (active)
same,IC50,[10],40.6 µM (active)
same,IC50,[11],52.3 µM (active)
COc1cccc(NC(=O)Nc2ccc(C(C)(C)C)cc2)c1,IC50,[12],50 µM (inactive)
same,AC50,[13],> 100 µM (inactive)
CC(=O)c1cccc(NC(S)=NC2CCCCCCC2)c1,AC50,[13],> 100 µM (inactive)
O=C(CSc1nc2cc3ccccc3cc2[nH]1)Nc1ccc(F)cc1,IC50,[7],119 µM (inactive)
same,IC50,[8],51.7 µM (inactive)
same,IC50,[9],100 µM (inactive)
COc1cc2c(cc1N=C(S)Nc1cccc(C)c1)oc1ccccc12,IC50,[1],5.82 µM (active)
